From patent US20100003302A1, “VASCULAR RESTENOSIS PREVENTING AGENT AND IMPLANTABLE INTRAVASCULAR DEVICE COATED THEREWITH” (priority 2001, published 2010)

Key:
[1] = test system: vascular smooth muscles (HNB18E6E7 cell line); assay: Migration of vascular smooth muscle cells into fibrin gel containing N-chlorsuccinimide; type: cell-based, human; conditions: 37° C., 24 hours
Description: The vascular smooth muscles were collected from human vital arteries and established HNB18E6E7 was used as cell lines. The vascular smooth muscles were incubated in 6-well plates to produce confluent cultures. The resultant supernatant fluids were washed three time with warmed phosphate buffer solution (PBS) and softly added with 3 mg/mL of fibrinogen and 0.8 mL of Waymouth culture solution including 10 w/v % human serum. Then, the supernatant fluids were respectively added with N-chlorsuccinimide to adjust the final concentration of N-chlorsuccinimide to 0.08 mM, 0.8 mM, 8 mM and 80 mM, and gelled by addition of thrombin. The resultant gelled supernatants were incubated at 37° C. for 24 hours, and the numbers of the smooth muscle cells migrated into the gel was counted with a phase contrast microscope. For each concentration, the experiments were carried out to make n=3. The ordinate denotes the frequencies of migration of vascular smooth muscles into the gel, while the abscissa denotes the concentration of N-chlorsuccinimide.

[2] = test system: right common iliac artery vascular injury model; assay: Neointimal formation in vascular injury model (right common iliac artery 3-times balloon injury); type: in vivo, rabbits; conditions: local administration by balloon immersed in 80 mM N-chlorsuccinimide vs PBS control; 4 weeks after treatment
Description: There were used a group of animals consisted of 5 (five) […] male rabbits aged 2 months. Vascular injury models were prepared by introducing a Fogarty catheter, Model e-060-2F, made by Baxter corporation (that is an arterial embolectomy balloon catheter) into the right common iliac artery through the right femoral artery under pentobarbital anesthesia, and then abrading the right common iliac artery 3 times under conditions of the balloon being inflated (balloon pressure: 0.5-1.0 atm). After injuring the vascular endothelium, hydrophilic balloons made by Boston Scientific Corporation, of an N-chlorsuccinimide-treated group prepared by immersing the balloons in 80 mM N-chlorsuccinimide, and of a control group prepared by immersing the balloons in PBS, were respectively inflated in the right common iliac arteries to locally administer the drug to each injured area. After 4 weeks from the treatment, the arteries were surgically removed, fixed with 10w/v % neutral buffered formalin fixative and then sectioned to prepare arterial ring tissue sections. After preparing elastic fiber stained tissue samples by EVG (Elastic Van Gieson) staining, the samples were subjected to measurements of intimal area (I) and medial area (M) to determine their ratio (I/M) as the degree of intimal thickening. […]

[3] = target: T1, α2-macroglobulin (Homo sapiens, UniProt P01023); assay: Deactivation of α2-macroglobulin (trypsin / coloring matrix S2222 assay, absorption at 405 nm); type: biochemical
T1 sequence (P01023 24-1474): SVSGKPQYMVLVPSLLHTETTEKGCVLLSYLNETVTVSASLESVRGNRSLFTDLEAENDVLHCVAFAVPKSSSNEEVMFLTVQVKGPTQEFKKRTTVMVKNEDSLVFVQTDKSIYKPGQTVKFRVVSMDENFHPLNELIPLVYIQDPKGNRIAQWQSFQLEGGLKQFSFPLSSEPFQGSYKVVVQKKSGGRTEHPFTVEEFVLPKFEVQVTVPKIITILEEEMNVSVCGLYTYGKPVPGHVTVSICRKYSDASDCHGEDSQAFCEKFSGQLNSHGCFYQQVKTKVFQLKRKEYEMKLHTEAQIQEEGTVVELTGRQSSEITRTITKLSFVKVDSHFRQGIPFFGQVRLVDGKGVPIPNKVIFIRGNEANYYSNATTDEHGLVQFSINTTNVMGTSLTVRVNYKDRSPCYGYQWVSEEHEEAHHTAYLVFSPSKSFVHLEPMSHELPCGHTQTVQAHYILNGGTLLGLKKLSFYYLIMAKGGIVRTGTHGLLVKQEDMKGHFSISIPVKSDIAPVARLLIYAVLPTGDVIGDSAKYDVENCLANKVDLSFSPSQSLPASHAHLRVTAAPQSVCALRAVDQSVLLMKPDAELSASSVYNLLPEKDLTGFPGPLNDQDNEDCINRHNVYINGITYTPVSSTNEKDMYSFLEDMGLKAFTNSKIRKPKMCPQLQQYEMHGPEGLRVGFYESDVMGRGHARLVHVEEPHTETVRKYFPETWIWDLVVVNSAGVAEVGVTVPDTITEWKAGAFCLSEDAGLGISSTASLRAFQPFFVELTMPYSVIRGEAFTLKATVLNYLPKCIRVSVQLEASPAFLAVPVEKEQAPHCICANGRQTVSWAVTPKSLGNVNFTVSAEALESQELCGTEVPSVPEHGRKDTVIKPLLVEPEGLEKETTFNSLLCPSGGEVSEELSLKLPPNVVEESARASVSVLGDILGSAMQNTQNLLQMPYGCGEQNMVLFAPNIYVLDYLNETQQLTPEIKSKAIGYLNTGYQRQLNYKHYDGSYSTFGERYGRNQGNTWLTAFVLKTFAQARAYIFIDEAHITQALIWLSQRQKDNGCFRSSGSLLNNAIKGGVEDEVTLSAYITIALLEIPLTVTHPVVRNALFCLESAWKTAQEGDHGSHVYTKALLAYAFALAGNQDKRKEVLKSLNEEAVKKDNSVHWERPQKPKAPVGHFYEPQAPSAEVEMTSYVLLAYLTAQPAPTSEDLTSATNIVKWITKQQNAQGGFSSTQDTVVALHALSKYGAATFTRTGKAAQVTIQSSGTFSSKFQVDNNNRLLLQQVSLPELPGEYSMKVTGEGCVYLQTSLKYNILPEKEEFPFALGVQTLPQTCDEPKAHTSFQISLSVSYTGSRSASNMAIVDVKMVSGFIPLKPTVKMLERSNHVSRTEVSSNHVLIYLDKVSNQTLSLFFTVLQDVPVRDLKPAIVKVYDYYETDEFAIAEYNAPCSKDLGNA
Description: Utilizing the facts that trypsin is inhibited by α2-macroglobulin and that trypsin causes yellow coloring of a coloring matrix S2222 resulting from decomposition thereof, verification was carried out for effects of methylamine, ethylamine, polyethyleneimines with molecular weights of 600 and 10000, tobramycin, ammonia, lysozyme chloride and polylysine on deactivation of α2-macroglobulin. A concrete method will be given below.
Firstly, each of methylamine, ethylamine, polyethyleneimines with molecular weights of 600 and 10000, tobramycin, ammonia, lysozyme chloride and polylysine was diluted to 0.0001 w/v %, 0.001 w/v %, 0.01 w/v %, 0.1 w/v % and 1 w/v % to prepare a series of diluted solutions as sample solutions. 50 μL of each sample solution was added with 50 μL of 2.5×10^−4 w/v % α2-macroglobulin and left for 5 minutes at room temperature. Then, the sample solution was added with 50 μL of a 5 w/v % trypsin EDTA solution, left for 5 minutes at room temperature, and then added with 10 μL of the coloring matrix S2222. After leaving the resultant sample solution for 20 minutes at room temperature, the sample solution was added with 50 μL of 10 w/v % acetic acid solution to stop reactions, and then subjected to measurement of absorption of light with a wave length of 405 nm, using 50 mM tris(hydroxymethyl)aminomethane buffer solution of pH 8.0 as the blank. The dilution of all the samples and agents was carried out by a 50 mM tris(hydroxymethyl)aminomethane buffer solution of pH 8.0. Results are shown in FIG. 5, in which the ordinate denotes the deactivation rate of α2-macroglobulin, and the abscissa denotes the concentrations of respective compounds.

[4] = compound concentration 0.1 w/v %

O=C1CCC(=O)N1Cl [N-chlorsuccinimide]
number of migrating vascular smooth muscles ([1]; 80 mM N-chlorsuccinimide in fibrin gel): vanished completely
frequency of migration of the vascular smooth muscles into the gel ([1]; N-chlorsuccinimide 0.08, 0.8, 8 and 80 mM in fibrin gel, n=3): decreases apparently with increasing concentration
neointimal hyperplasia (degree of intimal thickening, I/M ratio) [2]: considerably inhibited

CN [methylamine]
deactivation rate of α2-macroglobulin ([3]; compound concentration 1 w/v %): about 100%

lysozyme chloride
deactivation rate of α2-macroglobulin [3, 4]: 100%

polylysine
deactivation rate of α2-macroglobulin [3, 4]: 100%
